From patent publication US4365066A, “2(4-n-Hexadecyl amino or oxy phenyl) 5 ethoxy oxazoleacetic acid derivatives” (Yoshitomi Pharmaceutical Industries Ltd., priority 1979, dated 1982)
Where two headings read alike, the source gives them in different places.

Experiments:
[1] = (iii) Acute toxicity (LD50) in mice; settings: mouse, in vivo, mortality within 7 days
Protocol: (iii) Male dd-strain mice were used. Each group was composed of 10 animals. The test compound was administered intraperitoneally or orally to the animals. The LD50 (mg/kg) was calculated from the mortality within 7 days after administration of the test compound.

blood cholesterol = assay: (iv) Blood cholesterol reduction in hyperlipemic monkeys fed a diet containing 0.25% cholesterol; assay type: in vivo; settings: hyperlipemic Rhesus monkeys, diet with 0.25% cholesterol; diet containing 0.7% (W/W) test compound, 15 days; vs control group
[2] = test system: Cholesterol and triglyceride in the serum; assay: (ii) Serum cholesterol and triglyceride reduction in rats fed a conventional diet; assay type: in vivo, Male Sprague-Dowley rats; settings: rats on conventional diet, test compound 0.1% (W/W) in diet, oral, 5 days, control = 100%
Protocol: (i) Male Sprague-Dowley rats were used. Each group was composed of 8 animals. Rats were fed a diet containing 1% of cholesterol. The test compound was orally administered to the animal by feeding with the diet to which the compound was blended in a ratio of 0.1% (W/W) for 5 days. Cholesterol and triglyceride in the serum were determined by the standard methods using an autoanalyzer (Technicon Inc.). The levels in the control group were considered as 100% and the reduction rate in the test group was calculated. (ii) With the exception that rats were fed a conventional diet instead of the diet containing 1% cholesterol, a test was carried out in the same condition (rats used, administration method, period, concentration of test compound and cholesterol and triglyceride determination) as in the above test (i).

[3] = test system: Cholesterol and triglyceride in the serum; assay: (i) Serum cholesterol and triglyceride reduction in rats fed a diet containing 1% of cholesterol; assay type: in vivo, Male Sprague-Dowley rats; settings: rats on diet containing 1% cholesterol, test compound 0.1% (W/W) in diet, oral, 5 days, control = 100%
Protocol: (i) Male Sprague-Dowley rats were used. Each group was composed of 8 animals. Rats were fed a diet containing 1% of cholesterol. The test compound was orally administered to the animal by feeding with the diet to which the compound was blended in a ratio of 0.1% (W/W) for 5 days. Cholesterol and triglyceride in the serum were determined by the standard methods using an autoanalyzer (Technicon Inc.). The levels in the control group were considered as 100% and the reduction rate in the test group was calculated.

[4] = ip, intraperitoneal, read-out: LD50 Intraperitoneal administration
[5] = oral, read-out: LD50 Oral administration

SMILES: CCCCCCCCCCCCCCCCNc1ccc(-c2nc(CC(=O)[O-])c(OCC)o2)cc1.[Na+]
- LD50 at 168 h [1, 4]: > 1000 mg/kg
- LD50 at 168 h [1, 5]: > 2500 mg/kg
- reduction activity of blood cholesterol (blood cholesterol): outstanding reduction activity
- Reduction Rate (%) Cholesterol [2]: 26%
- Reduction Rate (%) Triglyceride [2]: 44%
- Reduction Rate (%) Cholesterol [3]: 31%
- Reduction Rate (%) Triglyceride [3]: 28%

SMILES: CCCCCCCCCCCCCCCCOc1ccc(-c2nc(CC(=O)O)c(Oc3ccc(Cl)cc3)o2)cc1 [Compound C, 2-(4-n-Hexadecyloxyphenyl)-5-(4-chlorophenoxy)-4-oxazoleacetic acid]
- Reduction Rate (%) Cholesterol [3]: 31%
- Reduction Rate (%) Triglyceride [3]: 37%

SMILES: CCOC(=O)C(C)(C)Oc1ccc(Cl)cc1 [Compound E, Clofibrate, reference compound]
- LD50 at 168 h [1, 4]: > 1000 mg/kg
- LD50 at 168 h [1, 5]: > 1450 mg/kg
- Reduction Rate (%) Cholesterol [2]: 23%
- Reduction Rate (%) Triglyceride [2]: 34%
- Reduction Rate (%) Cholesterol [3]: 22%
- Reduction Rate (%) Triglyceride [3]: 23%

SMILES: CCCCCCCCCCCCCCCCOc1ccc(-c2nc(CC(=O)O)c(OCC)o2)cc1 [Compound A, 2-(4-n-Hexadecyloxyphenyl)-5-ethoxy-4-oxazoleacetic acid]
- LD50 at 168 h [1, 4]: > 1000 mg/kg
- LD50 at 168 h [1, 5]: > 2500 mg/kg
- reduction activity of blood cholesterol (blood cholesterol): outstanding reduction activity
- Reduction Rate (%) Cholesterol [2]: 29%
- Reduction Rate (%) Triglyceride [2]: 44%
- Reduction Rate (%) Cholesterol [3]: 21%
- Reduction Rate (%) Triglyceride [3]: 35%

SMILES: CCOc1oc(-c2ccc(OCc3ccc(Cl)cc3)cc2)nc1CC(=O)O [Compound D, 2-[4-(4-Chlorobenzyloxy)phenyl]-5-ethoxy-4-oxazoleacetic acid]
- Reduction Rate (%) Cholesterol [2]: 19%
- Reduction Rate (%) Triglyceride [2]: 53%
- Reduction Rate (%) Cholesterol [3]: 37%
- Reduction Rate (%) Triglyceride [3]: 42%
